In patent publication US20260109732A1, “LIPID AMINES” (ModernaTX, Inc., priority 2021, published 2026):
Counter-ions that a name gives are not always drawn.

Key:
[1] = Diameter and PDI from DLS measurements of mRNA nanoparticles with lipid amines; assay type: physicochemical
Experimental: (§1) Lipids are dissolved in ethanol at a concentration of 24 mg/mL and molar ratios of 49.0:11.2:39.3:0.5 (IL1:DSPC:cholesterol:PEG-DMG-2K) and mixed with the acidification buffer (45 mM acetate buffer at pH 4). The lipid solution and acidification buffer are mixed using a multi-inlet vortex mixer at a 3:7 volumetric ratio of lipid:buffer for mixer 1 and mixer 2 and a 1:3 volumetric ratio of lipid:buffer (25% ethanol) for mixer 3. After a 5 second residence time, the resulting nanoparticles are mixed with 55 mM sodium acetate at pH 5.6 at a volumetric ratio of 5:7 of nanoparticle:buffer. See Table 2a for mixing parameters. The resulting dilute nanoparticles are then buffer exchanged and concentrated using tangential flow filtration (TFF) into a final buffer containing 5 mM sodium acetate pH 5.0. Then a 70% sucrose solution in 5 mM acetate buffer at pH 5 is subsequently added.
(§2) The resulting nanoparticles at a lipid concentration of 7.33 mg/mL in 5 mM acetate (pH 5) and 75 g/L sucrose are mixed with mRNA (luciferease or CFTR) at a concentration of 0.625 mg/mL in 42.5 mM sodium acetate pH 5.0, with N:P of 4.93. The nanoparticle solution and nanoparticles are mixed using a multi-inlet vortex mixer at a 3:2 volumetric ratio of nanoparticle:mRNA. Once loaded with mRNA, these intermediate nanoparticles undergo a 300 second residence time prior addition of neutralization buffer containing 120 mM TRIS pH 8.12 at a volumetric ratio of 5:1 of nanoparticle:buffer.
(§3) For HeLa studies evaluating luciferase protein expression, PEG-DMG-2K dissolved in a 20 mM TRIS buffer (pH 7.5) is added to the neutralized intermediate nanoparticle solution at a ratio of 1:6, bringing the solution to the final molar ratios of IL1:DSPC:cholesterol:PEG-DMG-2K of 48.5:11.1:38.9:1.5%. This nanoparticle formulation is then modified with lipid amines. In a typical example, nanoparticle formulation at a concentration of 0.18 mg/mL mRNA and a 0.56 mL volume is modified with lipid amine SA50 (467.2 nmol) prepared in buffer containing 20 mM TRIS, 14.3 mM sodium acetate, 32 g/L sucrose and 140 mM NaCl-pH 7.5 at a volumetric ratio of 1:1 of nanoparticle:buffer.
(§4) For HeLa studies evaluating CFTR protein expression, the intermediate nanoparticle formulation (1 mL, 0.415 mg mRNA) is mixed with a buffer containing 20 mM TRIS (pH 7.5), 0.9 mg/mL PEG-DMG-2K and lipid amine SA50 (647.1 nmol) at a volumetric ratio of 6:1 of nanoparticle:buffer. The resulting nanoparticle suspension undergoes concentration using a centrifugal filtration device (100 kDa molecular weight cut-off) and is diluted in running buffer (20 mM TRIS, 14.3 mM sodium acetate, and 32 g/L sucrose, pH 7.5) with a 300 mM NaCl solution to a final buffer matrix containing 70 mM NaCl.
(§5) Both resulting nanoparticle suspensions are filtered through a 0.8/0.2 μm capsule filter and filled into glass vials at an mRNA strength of about 0.1-1 mg/mLBliophysical data (Diameter and PDI from DLS measurements and Encapsualtion using Ribogreen assay) for both luciferase and CFTR mRNA nanoparticles with lipid amines is shown in Tables 2c and d, respectively.

[2] = Encapsulation of mRNA nanoparticles with lipid amines using Ribogreen assay; assay type: physicochemical
Experimental: as §1, §2, §3, §4, §5

HeLa cells [3] = assay: Luciferase Protein Expression Assay in HeLa Cells; assay type: cell-based, Human; settings: LNPs encapsulating Luciferase mRNA, 25 ng per well, N=4 wells; 5 h serum-free then 24 h; ONE-Glo
Experimental: as §3
(§6) Lipid nanoparticle compositions were prepared in a manner analogous to that in example 2. To evaluate LNP cellular uptake and protein expression In Vitro, HeLa cells from ATCC.org (ATCC CCL-2) are used. The cells are cultured in complete Minimum Essential Medium (MVEM) and are plated in 96 well Cell Carrier Ultra plate with PDL coated surface (PerkinElmer) prior to running an experiment.
Cells were transfected with buffer control (PBS) or LNPs encapsulating Luciferase mRNA (25 ng per well; N=4 replicate wells) in serum-free MEM media. LNP transfected cells were incubated for 5 h, followed by media removal and supplementation with complete MEM media. Cells were further incubated in complete MEM media overnight (24 h). Following the 24 hr incubation, luciferase protein expression was measured using the ONE-Glo™ Luciferase Assay (Promega). Cells were lysed using 1× Passive Lysis Buffer (Cat. #E194A) for 10 min in a microplate mixer at room temperature. Luciferase in the supernatant was measured by adding Luciferase Assay Reagent (Cat. #E151A) containing luciferin. Bioluminescence was then immediately measured on a Synergy H1 plate reader (BioTek). The results shown in Table 3a show the Average Relative Light Units (RLU) of each sample tested.

HeLa cells [4] = assay: CFTR Protein Expression Assay in HeLa Cells; assay type: cell-based, Human; settings: LNPs encapsulating CFTR mRNA, N=4 wells; 5 h serum-free then 24 h; immunofluorescence vs PBS control
Experimental: as §4, §6
Buffer control (PBS) and LNPs encapsulating cystic fibrosis transmembrane conductance regulator (CFTR) mRNA were dosed with MEM media in the absence of serum (N=4 replicate wells). LNP transfected cells were incubated for 5 h, followed by media removal and supplementation with complete MEM media. Cells were further incubated in complete MEM media overnight (24 h).
Following 24 hr incubation, the cells were fixed with PFA and processed for immunofluorescence (IF) using an anti-CFTR rabbit monoclonal antibody. Briefly, the cells were permeabilized with 0.5% TX-100 for 10 min, blocked with 3% bovine serum albumin (BSA)+PBST for 1 hr at room temperature, and incubated with primary anti-CFTR monoclonal antibody overnight at 4° C. Following primary antibody incubation, the cells were incubated with Alexa 488 conjugated secondary antibody for 30 mi and stained with DAPI and HCS CellMask Blue stain. Between different incubation steps the cells were either washed with PBS or PBST. Cells were imaged using Opera Phoenix spinning disk confocal microscope (PerkinElmer), and CFTR protein expression was detected using the 488 nm channel. The image analysis was performed in Harmony 4.9, with main analysis output being CFTR intensity per cell. The results shown in Table 3b show fold-change in CFTR signal intensity per cell compared to buffer (PBS) control (NA=not available).

[5] = CFTR mRNA nanoparticle with lipid amine
[6] = Luciferase mRNA nanoparticle modified with lipid amine

SMILES | Diameter (nm) [1, 5] [nm] | PDI [1, 5] | Diameter (nm) [1, 6] [nm] | PDI [1, 6] | % Encapsulation (Ribogreen) [2, 5] [%] | % Encapsulation (Ribogreen) [2, 6] [%] | Average Relative Light Units ± Standard Deviation (HeLa cells [3]) [Relative Light Units] | Average fold-change in CFTR signal intensity per cell compared to buffer control ± standard deviation (HeLa cells [4]) [fold-change]
CC(C)CCC[C@@H](C)[C@H]1CC[C@H]2[C@@H]3CC=C4C[C@@H](OC(=O)N(CCCC(C)(C)N)CCC(C)(C)N)CC[C@]4(C)[C@H]3CC[C@]12C [SA157, (3S,8S,9S,10R,13R,14S,17R)-10,13-dimethyl-17-((R)-6-methylheptan-2-yl)-2,3,4,7,8,9,10,11,12,13,14,15,16,17-tetradecahydro-1H-cyclopenta[a]phenanthren-3-yl (3-amino-3-methylbutyl)(4-amino-4-methylpentyl)carbamate dihydrochloride] | 73.9 | 0.16 | 75 | 0.13 | 99.8 | 99.6 | 24130.4 ± 4741.7 | 15.9 ± 1.4
CC(C)CCC[C@@H](C)[C@H]1CC[C@H]2[C@@H]3CC=C4C[C@@H](OC(=O)CN(CCCCCCCCN)C(=O)[C@@H](N)CCCN)CC[C@]4(C)[C@H]3CC[C@]12C.Cl.Cl.Cl [SA129, (3S,8S,9S,10R,13R,14S,17R)-10,13-dimethyl-17-((R)-6-methylheptan-2-yl)-2,3,4,7,8,9,10,11,12,13,14,15,16,17-tetradecahydro-1H-cyclopenta[a]phenanthren-3-yl N-(8-aminooctyl)-N-((S)-2,5-diaminopentanoyl)glycinate trihydrochloride] | 81.6 | 0.12 | 70 | 0.16 | 96.2 | 99.5 | 144.8 ± 21.6 | 1.0 ± 0
CC[C@H](CC[C@@H](C)[C@H]1CC[C@H]2[C@@H]3CC=C4C[C@@H](OC(=O)N(CCCCNC)CCCNC)CC[C@]4(C)[C@H]3CC[C@]12C)C(C)C [SA180, (3S,8S,9S,10R,13R,14S,17R)-17-((2R,5R)-5-ethyl-6-methylheptan-2-yl)-10,13-dimethyl-2,3,4,7,8,9,10,11,12,13,14,15,16,17-tetradecahydro-1H-cyclopenta[a]phenanthren-3-yl (4-(methylamino)butyl)(3-(methylamino)propyl)carbamate dihydrochloride] |  |  | 76 | 0.17 |  | 98.7 | 35476 ± 6770.8 | 
CC[C@H](CC[C@@H](C)[C@H]1CC[C@H]2[C@@H]3CC=C4C[C@@H](OC(=O)N(CCCCNC(C)CCN)C(C)CCN)CC[C@]4(C)[C@H]3CC[C@]12C)C(C)C (stereo partly drawn) [SA113, (3S,8S,9S,10R,13R,14S,17R)-17-((2R,5R)-5-ethyl-6-methylheptan-2-yl)-10,13-dimethyl-2,3,4,7,8,9,10,11,12,13,14,15,16,17-tetradecahydro-1H-cyclopenta[a]phenanthren-3-yl (4-aminobutan-2-yl)(4-((4-aminobutan-2-yl)amino)butyl)carbamate trihydrochloride] |  |  | 77 | 0.23 |  | 99.7 | 20665.4 ± 7510.5 | 
CC(C)CCC[C@@H](C)[C@H]1CC[C@H]2[C@@H]3CC=C4C[C@@H](OC(=O)N(CCCCNC(C)CCN)C(C)CCN)CC[C@]4(C)[C@H]3CC[C@]12C (stereo partly drawn) [SA74, (3S,8S,9S,10R,13R,14S,17R)-10,13-dimethyl-17-((R)-6-methylheptan-2-yl)-2,3,4,7,8,9,10,11,12,13,14,15,16,17-tetradecahydro-1H-cyclopenta[a]phenanthren-3-yl (4-aminobutan-2-yl)(4-((4-aminobutan-2-yl)amino)butyl)carbamate trihydrochloride] |  |  | 75 | 0.19 |  | 99.1 | 23899.2 ± 6943.7 | 
CC[C@H](CC[C@@H](C)[C@H]1CC[C@H]2[C@@H]3CC=C4C[C@@H](OC(=O)N(CCCCNCC(F)(F)CN)CC(F)(F)CN)CC[C@]4(C)[C@H]3CC[C@]12C)C(C)C [SA116, (3S,8S,9S,10R,13R,14S,17R)-17-((2R,5R)-5-ethyl-6-methylheptan-2-yl)-10,13-dimethyl-2,3,4,7,8,9,10,11,12,13,14,15,16,17-tetradecahydro-1H-cyclopenta[a]phenanthren-3-yl (3-amino-2,2-difluoropropyl)(4-((3-amino-2,2-difluoropropyl)amino)butyl)carbamate trihydrochloride] |  |  | 73 | 0.20 |  | 97.6 | 110.9 ± 26.9 | 
CC(C)CCC[C@@H](C)[C@H]1CC[C@H]2[C@@H]3CC=C4C[C@@H](OC(=O)CN(CCCN)CCCCNCCCN)CC[C@]4(C)[C@H]3CC[C@]12C (stereo in doubt) [SA65, ((3S,8S,9S,10R,13R,14S,17R)-10,13-dimethyl-17-((R)-6-methylheptan-2-yl)-2,3,4,7,8,9,10,11,12,13,14,15,16,17-tetradecahydro-1H-cyclopenta[a]phenanthren-3-yl N-(3-aminopropyl)-N-(4-((3-aminopropyl)amino)butyl)glycinatetetrahydrochloride] | 78.0 | 0.14 |  |  | 99.6 |  |  | 5.9 ± 0.5
